{"source": "patent EP0232423A1", "about": "“CIRCULATION IMPROVING AGENT” (GRELAN PHARMACEUTICAL CO., LTD., priority 1985, dated 1987)", "key": {"isolated basilar artery [1]": {"test_system": "isolated basilar artery", "test": "Relaxation of isolated basilar artery contracted by 50 mM KCl", "assay_type": "cell-based, Mongrel dogs", "details": "Canis lupus familiaris, 50 mM KCl contraction", "experimental": "(§1) Mongrel dogs of either sex (body weight 10-17 kg) were killed by bleeding under anesthetization with pentobarbital sodium (tradename: Nembutai ® Abbott Co., USA). Thereafter, the basilar and femoral arteries were extracted and attached blood and connective tissues were carefully removed in a dish filled with Krebs bicarbonate solution (composition: NaCl 117.7 mM, KC1 4.7 mM, CaCl2 2.5 mM, MgSo4 1.2 mM, glucose 10 mM, NaHCO3 24.4 mM). Thereafter, ring preparations were made therefrom. This preparation was suspended in a bathing tube of 10 ml filled with Krebs bicarbonate solution aerated with 95 % 02 and 5 % C02.\n(§2) Then, samples of basilar and femoral arteries were contracted by application of 50 mM KC1. After confirming that the contraction was sustained, (a) compound (I) (erythro form) lactate, (b) compound (I) (threo form) lactate and (c) ifenprodil; [2-(4-benzyl- piperidino-l-(4-hydroxyphenyl)propane-l-ol] tartrate were, respectively, administered as test compounds and the dose-relaxation response was examined.\n(§3) A strain gauge transducer (model SB-lT manufactured by Nihon Koden Co.) was employed for recording of change of tension and isometric contraction was recorded on a recorder (model QPD 53 made by Hitachi Ltd . ) ."}, "isolated femoral artery [2]": {"test_system": "isolated femoral artery", "test": "Relaxation of isolated femoral artery contracted by 50 mM KCl", "assay_type": "cell-based, Mongrel dogs", "details": "Canis lupus familiaris, 50 mM KCl contraction", "experimental": "as §1, §2, §3"}, "isolated coronary artery": {"test_system": "isolated coronary artery", "test": "Relaxation of isolated coronary artery", "assay_type": "cell-based, Mongrel dogs", "details": "Canis lupus familiaris, read-out: ED50 (the source's name)", "experimental": "as §1, §2, §3\nExperiments were conducted in accordance with the method of Test Example 2 with use of the coronary artery in place of the basilar and femoral arteries. […]"}, "isolated basilar artery [3]": {"test_system": "isolated basilar artery", "test": "Ca antagonistic action: Ca-induced contraction in K-depolarized basilar artery", "assay_type": "cell-based, Mongrel dogs", "details": "Canis lupus familiaris, 0.25 h, 50 mM KCl, Ca-free bath, cumulative CaCl2, compound applied 15 minutes before, read-out: pA2 values on Ca-induced contraction in depolarized muscle by K (converted)", "experimental": "(§4) The same measurements as in Test Example 2 were carried out using the isolated basilar artery and isolated femoral artery treated in accordance with the method of Test Example 2.\n(§5) For examination of the Ca antagonistic action, the depolarization of both isolated arteries was induced with 50 mM KC1 in a bathing solution from which Ca had been removed and then CaCl2 was cumulatively applied thereto. As test compounds, (a) compound (I) (erythro form) lactate and (b) ifenprodil tartrate were applied at 15 minutes before addition of CaCl2."}, "isolated femoral artery [4]": {"test_system": "isolated femoral artery", "test": "Ca antagonistic action: Ca-induced contraction in K-depolarized femoral artery", "assay_type": "cell-based, Mongrel dogs", "details": "Canis lupus familiaris, 0.25 h, 50 mM KCl, Ca-free bath, cumulative CaCl2, compound applied 15 minutes before, read-out: pA2 values on Ca-induced contraction in depolarized muscle by K (converted)", "experimental": "as §4, §5"}, "ddY male mice [5]": {"test_system": "ddY male mice", "test": "Thromboembolic respiratory depression induced by ADP", "assay_type": "in vivo", "details": "30 mg/kg oral, ADP 40 mg/kg i.v., Compound (I) = erythro form", "experimental": "The degree of formation of platelet thrombi in the pulmonary vessels of mice induced by intravenous administration of ADP can be measured based on the decrease in the respiratory rate. The anti-platelet thrombotic action of test drugs can be evaluated by using this decrease in the respiratory rate as a standard. […] Relative respiratory rate (%) was calculated according to the following formula. [formula] (cf. \"Thrombosis Research\", Vol. 35, Page 311, 1984)"}, "mice": {"test_system": "mice", "test": "Protective action on death caused by endotoxin shock", "assay_type": "in vivo", "details": "for Number of survival after administration of endotoxin: of 15 (Compound (I)) or 14 (ifenprodil) animals", "description": "Compound (I) and ifenprodil tartrate were orally administered to mice and the protective action on death due to endotoxin shock was examined in accordance with a known method (Folia pharmacol. japon, vol. 86, page 17, 1985). The control group was drug-untreated."}, "α1-adrenoceptor": {"test_system": "α1-adrenoceptor", "test": "Antagonism of phenylephrine (α1-agonist) contraction in saphenous vein", "assay_type": "cell-based, Mongrel dogs", "details": "α1 - agonist: phenylephrine; saphenous vein; 15 minutes treatment", "description": "In this experiment, phenylephrine and clonidine were used as al-agonist and a2-agonist, respectively, and these agonists were cumulatively applied to obtain a dose-response curve."}, "ddY male mice [6]": {"test_system": "ddY male mice", "test": "Ameliorative activity against damage of cerebral hypoxia (reduced pressure)", "assay_type": "in vivo", "experimental": "Thirty mg/kg each of compound (I) (lactate) and ifenprodil tartrate and 16 mg/kg of phentolamine, which is an a-adrenoceptor blocker, were intraperitoneally administered to ddY male mice, respectively. […] Time from start of reduction of pressure until stop of respiration in the mice was measured. The control group was drug-untreated."}, "isolated femoral artery [7]": {"test_system": "isolated femoral artery", "test": "K-induced 45Ca influx in isolated femoral artery", "assay_type": "cell-based, Mongrel dogs", "details": "10^-5 M + 50 mM KCl", "description": "(§6) Using the isolated basilar artery and femoral artery treated in accordance with Test Example 2, the activity of (a) compound (I) (lactate), (b) ifenprodil tartrate and (c) verapamil hydrochloride against ^45Ca influx and ^45Ca uptake were examined by the conventional method (J. Membran. Biol., vol. 59, page 19, 1981)."}, "isolated femoral artery [8]": {"test_system": "isolated femoral artery", "test": "K-induced 45Ca uptake in isolated femoral artery", "assay_type": "cell-based, Mongrel dogs", "details": "50 mM KCl alone 586.0 ± 17.9", "description": "as §6"}, "isolated basilar artery [9]": {"test_system": "isolated basilar artery", "test": "PGF2α-induced 45Ca uptake in isolated basilar artery", "assay_type": "cell-based, Mongrel dogs", "details": "10^-5 M + 10^-5 M PGF2α; PGF2α alone 166.2 ± 6.0", "description": "as §6"}}, "note": "Counter-ions that a name gives are not always drawn.", "data": [{"smiles": "CC(C(O)c1ccc(O)cc1)N1CCC(Cc2ccccc2)CC1", "note": "(centres unmarked) [Ifenprodil tartrate]", "values": [{"measurement": "inhibition at 50 µM", "setting": "isolated basilar artery [1]; 5 x 10^-5 M, mean, n = 4 - 5", "value": 96.6, "unit": "%"}, {"measurement": "inhibition at 100 µM", "setting": "isolated basilar artery [1]; 10^-4 M, mean, n = 4 - 5", "value": 100, "unit": "%"}, {"measurement": "inhibition at 10 µM", "setting": "isolated basilar artery [1]; 10^-5 M, mean, n = 4 - 5", "value": 44.1, "unit": "%"}, {"measurement": "inhibition at 1 µM", "setting": "isolated basilar artery [1]; 10^-6 M, mean, n = 4 - 5", "value": 5.1, "unit": "%"}, {"measurement": "inhibition at 0.1 µM", "setting": "isolated basilar artery [1]; 10^-7 M, mean, n = 4 - 5", "value": 0.9, "unit": "%"}, {"measurement": "EC50", "setting": "isolated basilar artery [1]; relaxation of isolated basilar artery, read-out: ED50 (the source's name)", "value": 11, "unit": "µM"}, {"measurement": "inhibition at 50 µM", "setting": "isolated femoral artery [2]; 5 x 10^-5 M, mean, n = 4 - 5", "value": 49.8, "unit": "%"}, {"measurement": "inhibition at 100 µM", "setting": "isolated femoral artery [2]; 10^-4 M, mean, n = 4 - 5", "value": 75.9, "unit": "%"}, {"measurement": "inhibition at 10 µM", "setting": "isolated femoral artery [2]; 10^-5 M, mean, n = 4 - 5", "value": 2.8, "unit": "%"}, {"measurement": "inhibition at 1 µM", "setting": "isolated femoral artery [2]; 10^-6 M, mean, n = 4 - 5", "value": 0, "unit": "%"}, {"measurement": "inhibition at 0.1 µM", "setting": "isolated femoral artery [2]; 10^-7 M, mean, n = 4 - 5", "value": 0, "unit": "%"}, {"measurement": "EC50", "setting": "isolated femoral artery [2]; relaxation of isolated femoral artery, read-out: ED50 (the source's name)", "value": 52, "unit": "µM"}, {"measurement": "EC50", "setting": "isolated coronary artery", "value": 26, "unit": "µM"}, {"measurement": "Kb", "setting": "isolated basilar artery [3]", "value": 5.37, "unit": "µM"}, {"measurement": "Kb", "setting": "isolated femoral artery [4]", "value": 29.5, "unit": "µM"}, {"measurement": "Relative respiratory rate (%)", "setting": "ddY male mice [5]; 1/3 hr after administration", "value": "34.6 ±10.2 (n=8) %"}, {"measurement": "Relative respiratory rate (%)", "setting": "ddY male mice [5]; 1 hr after administration", "value": "61.3 ±9.3 (n=6) %"}, {"measurement": "Relative respiratory rate (%)", "setting": "ddY male mice [5]; 2 hr after administration", "value": "52.7 ±6.1 (n=10) %"}, {"measurement": "Relative respiratory rate (%)", "setting": "ddY male mice [5]; 3 hr after administration", "value": "41.0 ±4.4 (n=8) %"}, {"measurement": "Relative respiratory rate (%)", "setting": "ddY male mice [5]; 5 hr after administration", "value": "23.0 ±9.9 (n=7) %"}, {"measurement": "Number of survival after administration of endotoxin", "setting": "mice; 70 mg/kg oral, 18 hr", "value": 11}, {"measurement": "Number of survival after administration of endotoxin", "setting": "mice; 70 mg/kg oral, 20 hr", "value": 9}, {"measurement": "Number of survival after administration of endotoxin", "setting": "mice; 70 mg/kg oral, 22 hr", "value": 6}, {"measurement": "Number of survival after administration of endotoxin", "setting": "mice; 70 mg/kg oral, 24 hr", "value": 2}, {"measurement": "Number of survival after administration of endotoxin", "setting": "mice; 70 mg/kg oral, 48 hr", "value": 0}, {"measurement": "Number of survival after administration of endotoxin", "setting": "mice; 200 mg/kg oral, 18 hr", "value": 11}, {"measurement": "Number of survival after administration of endotoxin", "setting": "mice; 200 mg/kg oral, 20 hr", "value": 9}, {"measurement": "Number of survival after administration of endotoxin", "setting": "mice; 200 mg/kg oral, 22 hr", "value": 7}, {"measurement": "Number of survival after administration of endotoxin", "setting": "mice; 200 mg/kg oral, 24 hr", "value": 7}, {"measurement": "Number of survival after administration of endotoxin", "setting": "mice; 200 mg/kg oral, 48 hr", "value": 5}, {"measurement": "protective action on the death (endotoxin shock)", "setting": "mice; oral, mice, compound (I) at 200 mg/kg", "value": "no such effect"}, {"measurement": "pA2 value", "setting": "α1-adrenoceptor", "value": "8.22 ± 0.29"}, {"measurement": "Time required for stoppage of respiration", "setting": "ddY male mice [6]; 30 mg/kg intraperitoneally, 30 minutes before, pressure reduced to 160 mmHg", "value": "85.2 ± 4.1", "unit": "s"}, {"measurement": "effect on survival time (cerebral hypoxia)", "setting": "ddY male mice [6]; i.p., 30 mg/kg compound (I) and ifenprodil tartrate, 16 mg/kg phentolamine", "value": "substantially no effect"}, {"measurement": "K-induced ^45Ca influx in isolated femoral artery", "setting": "isolated femoral artery [7]; pre-incubation 15 min, 50 mM KCl alone 94.6 ± 5.2", "value": "99.8 ± 6.4", "unit": "n mol/g wt. tissue"}, {"measurement": "K-induced ^45Ca influx in isolated femoral artery", "setting": "isolated femoral artery [7]; pre-incubation 45 min, 50 mM KCl alone 98.4 ± 6.8", "value": "59.0 ± 9.8", "unit": "n mol/g wt. tissue"}, {"measurement": "K-induced ^45Ca influx in isolated femoral artery", "setting": "isolated femoral artery [7]; pre-incubation 135 min", "value": "64.8 ± 7.5", "unit": "n mol/g wt. tissue"}, {"measurement": "K-induced ^45Ca uptake in isolated femoral artery", "setting": "isolated femoral artery [8]; 5 x 10^-5 M + 50 mM KCl", "value": "471.2 ± 40.0", "unit": "n mol/g wt. tissue"}, {"measurement": "K-induced ^45Ca uptake in isolated femoral artery", "setting": "isolated femoral artery [8]; 10^-4 M + 50 mM KCl", "value": "486.5 ± 20.9", "unit": "n mol/g wt. tissue"}, {"measurement": "K-induced ^45Ca uptake in isolated femoral artery", "setting": "isolated femoral artery [8]; 10^-5 M + 50 mM KCl", "value": "635.2 ± 41.4", "unit": "n mol/g wt. tissue"}, {"measurement": "PGF2α-induced ^45Ca uptake in isolated basilar artery", "setting": "isolated basilar artery [9]", "value": "125.7 ± 5.6", "unit": "n mol/g wt. tissue"}]}]}
